Where “and” joins values, the source holds several entries; their conditions need not be identical. Equal values may be shown once. Read-outs that look alike come from different tables or passages of the source.
Columns and labels:
[1] = system: MOP (GIRK2 channel activation); assay: GIRK channel membrane potential assay (G protein signaling); type: cell-based, mouse; conditions: for values normalised to 1µM DAMGO, mean: mean of replicates; for values normalised to 1µM DAMGO (individual values): single replicate values
Method: To analyze Gi signaling, changes in membrane potential produced by activation of G protein-gated inwardly rectifying potassium channel (GIRK) were measured as previously described[50],[51]. HEK293 cells were stably transfected with HA-MOP and GFP-conjugated GIRK2 channel plasmids (OriGene). The cells were then seeded in 96-well plates and allowed to grow at 37 °C in 5% CO2 for 48 h. […] A membrane potential dye (FLIPR Membrane Potential kit BLUE, Molecular Devices R8034) was reconstituted according to the manufacturer’s instructions. To each well, 90 μl of the HBSS/HEPES buffer solution and an equal volume of the membrane potential dye were added to a final volume of 180 μl per well. The cells were then incubated at 37 °C for 45 min. Test compounds were prepared in buffer solution containing HBSS and 20 mM HEPES solution (pH 7.4) at tenfold the final concentration to be measured. […] Baseline readings were taken every 1.8 s for 1 min. […] The change in dye fluorescence was recorded for 240 s with SoftMax Pro 5.4 software. Peak fluorescence values were obtained after subtraction of baseline readings for each sample and then used to calculate concentration–response curves using Origin.

CB2 cannabinoid receptor [2] = target: T1, CB2 cannabinoid receptor (Homo sapiens, UniProt P34972); assay: pT338/pT339-CB2 7TM phosphorylation assay; type: cell-based; conditions: for pT338/pT339-CB2 phosphorylation (OD405): raw duplicate readings
T1 construct: host or cells: HEK293 (CB2-HEK293)

CB2 cannabinoid receptor [3] = target: T1, CB2 cannabinoid receptor; assay: pS335/pS336-CB2 7TM phosphorylation assay; type: cell-based; conditions: for pS335/pS336 (CB2 Phosphorylation Assay): raw duplicate readings
WT-HEK293 cells = assay: [3H]DAMGO saturation binding, WT-HEK293 (native) membranes
MOP = target: T2, MOP (Mus musculus, UniProt P42866); assay: [3H]DAMGO saturation binding, MOP-HEK293 membranes
T2 construct: host or cells: HEK293 (Control-HEK293 or GRK-knockout clones), stably transfected

MOP, GRK2 = MOP, GRK2 (Mus musculus, UniProt P42866); conditions: for GRK2 recruitment, normalised: normalized to 10 µM DAMGO
Chain of MOP, GRK2 (P25098 whole entry): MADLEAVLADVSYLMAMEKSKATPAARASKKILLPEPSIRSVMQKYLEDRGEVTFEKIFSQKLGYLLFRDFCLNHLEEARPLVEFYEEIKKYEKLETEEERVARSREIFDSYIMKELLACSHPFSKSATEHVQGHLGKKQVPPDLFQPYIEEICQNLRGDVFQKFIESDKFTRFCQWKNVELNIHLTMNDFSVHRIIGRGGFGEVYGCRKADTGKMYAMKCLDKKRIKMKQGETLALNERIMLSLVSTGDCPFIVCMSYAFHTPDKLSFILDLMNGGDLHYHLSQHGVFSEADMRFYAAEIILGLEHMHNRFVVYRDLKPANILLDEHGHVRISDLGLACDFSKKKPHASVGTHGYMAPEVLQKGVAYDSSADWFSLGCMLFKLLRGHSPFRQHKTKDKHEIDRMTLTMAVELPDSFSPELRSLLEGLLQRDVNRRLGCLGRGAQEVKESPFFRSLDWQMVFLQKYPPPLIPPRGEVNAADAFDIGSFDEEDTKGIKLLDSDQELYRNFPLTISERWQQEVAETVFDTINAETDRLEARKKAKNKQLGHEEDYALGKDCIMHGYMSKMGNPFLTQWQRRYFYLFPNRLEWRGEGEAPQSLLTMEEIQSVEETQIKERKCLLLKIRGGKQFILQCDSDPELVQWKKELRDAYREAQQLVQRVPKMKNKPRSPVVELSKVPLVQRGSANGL
Chain of MOP, GRK2 (P42866 whole entry): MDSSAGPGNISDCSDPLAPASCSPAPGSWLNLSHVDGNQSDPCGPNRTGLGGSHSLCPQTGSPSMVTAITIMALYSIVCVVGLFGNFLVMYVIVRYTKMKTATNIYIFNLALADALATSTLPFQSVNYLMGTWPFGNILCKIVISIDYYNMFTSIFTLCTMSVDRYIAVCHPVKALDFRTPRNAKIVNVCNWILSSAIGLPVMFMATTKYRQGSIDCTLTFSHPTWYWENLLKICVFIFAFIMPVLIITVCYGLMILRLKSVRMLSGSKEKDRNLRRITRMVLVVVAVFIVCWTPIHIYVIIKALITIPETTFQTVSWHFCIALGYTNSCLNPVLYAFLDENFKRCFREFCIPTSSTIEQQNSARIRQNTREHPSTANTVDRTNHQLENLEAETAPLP
Method: Agonist-dependent binding of GRK2/3 and arrestin1/2 to a MOP was determined using a β-galactosidase complementation assay as previously described[47]. […] Cells were plated in 48-well plates and grown for 48 h. After 60 min of agonist exposure, a cell lysis reagent was added, and luminescence was recorded with a FlexStation 3 microplate reader (Molecular Devices).

T1 sequence (P34972 whole entry): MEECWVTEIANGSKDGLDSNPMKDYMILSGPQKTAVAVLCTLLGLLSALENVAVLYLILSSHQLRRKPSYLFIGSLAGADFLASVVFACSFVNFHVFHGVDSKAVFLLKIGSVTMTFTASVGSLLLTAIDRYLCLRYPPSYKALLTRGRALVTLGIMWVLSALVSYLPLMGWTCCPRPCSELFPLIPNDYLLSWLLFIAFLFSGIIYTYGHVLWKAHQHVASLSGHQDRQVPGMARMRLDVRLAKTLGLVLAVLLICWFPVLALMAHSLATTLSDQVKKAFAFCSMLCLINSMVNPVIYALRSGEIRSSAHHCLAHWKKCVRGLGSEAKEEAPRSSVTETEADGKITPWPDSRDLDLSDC
T2 sequence (P42866 whole entry): as the sequence (P42866 whole entry) above

CN1CC[C@]23c4c5ccc(O)c4O[C@H]2[C@@H](O)C=C[C@H]3[C@H]1C5 [Morphine, morphine]
values normalised to 1µM DAMGO, mean ([1]; 1pM ligand): 6.485
values normalised to 1µM DAMGO, mean ([1]; 10pM ligand): 6.027
values normalised to 1µM DAMGO, mean ([1]; 100pM ligand): 6.211
values normalised to 1µM DAMGO, mean ([1]; 1nM ligand): 9.125
values normalised to 1µM DAMGO, mean ([1]; 5nM ligand): 29.6678
values normalised to 1µM DAMGO (individual values) ([1]; 5nM ligand): 45.7495 and 19.0875 and 13.0961 and 9.052 and 36.1933 and 47.9074 and 51.2561 and 57.2816 and 46.4485 and 43.1943 and 26.9461 and 14.2883 and 14.2724 and 18.5122 and 18.46 and 12.9399
values normalised to 1µM DAMGO, mean ([1]; 10nM ligand): 57.2564
values normalised to 1µM DAMGO (individual values) ([1]; 10nM ligand): 58.6156 and 56.0883 and 35.9476 and 44.5152 and 64.4335 and 68.3763 and 70.0077 and 70.5635 and 61.8308 and 50.7811 and 68.4527 and 63.2893 and 55.6505 and 50.3141 and 38.9941 and 58.2419
values normalised to 1µM DAMGO, mean ([1]; 50nM ligand): 66.3769
values normalised to 1µM DAMGO (individual values) ([1]; 50nM ligand): 62.166 and 62.2926 and 44.6191 and 54.7318 and 72.3421 and 70.8947 and 81.0497 and 84.3524 and 69.6407 and 82.417 and 82.3952 and 62.9287 and 75.1596 and 38.3592 and 49.3923 and 69.2894
values normalised to 1µM DAMGO, mean ([1]; 100nM ligand): 74.2194
values normalised to 1µM DAMGO (individual values) ([1]; 100nM ligand): 89.3793 and 68.637 and 62.5767 and 14.9163 and 86.9174 and 89.8616 and 87.7405 and 94.4167 and 90.0012 and 88.0147 and 94.1235 and 58.569 and 65.3044 and 67.2492 and 54.6739 and 75.1284
values normalised to 1µM DAMGO, mean ([1]; 0.5µM ligand): 76.9579
values normalised to 1µM DAMGO (individual values) ([1]; 0.5µM ligand): 87.9206 and 64.7531 and 55.8615 and 55.3841 and 81.7364 and 84.8283 and 97.4763 and 95.5436 and 86.95 and 86.0094 and 85.8902 and 63.7515 and 63.5249 and 73.9389 and 76.3702 and 71.3871
values normalised to 1µM DAMGO, mean ([1]; 1µM ligand): 72.8983
values normalised to 1µM DAMGO (individual values) ([1]; 1µM ligand): 75.501 and 68.3564 and 51.865 and 76.6338 and 75.1014 and 79.046 and 83.5821 and 81.3432 and 80.3317 and 85.1376 and 62.4253 and 66.1705 and 66.7508 and 75.1369 and 66.0921

CCCCCCC(C)(C)c1ccc([C@@H]2C[C@H](O)CC[C@H]2CCCO)c(O)c1 [CP55940]
OD405 max pT338/pT339-CB2 (CB2 cannabinoid receptor [2]): 1.74
pT338/pT339-CB2 phosphorylation (OD405) (CB2 cannabinoid receptor [2]; CP55940 0.01 µM): 0.418 and 0.427 and 0.4081 and 0.4835 and 0.513
pT338/pT339-CB2 phosphorylation (OD405) (CB2 cannabinoid receptor [2]; CP55940 0.1 µM): 0.4372 and 0.4959 and 0.4415 and 0.4741 and 0.5035 and 0.468
pT338/pT339-CB2 phosphorylation (OD405) (CB2 cannabinoid receptor [2]; CP55940 0.3 µM): 0.4559 and 0.4962 and 0.7064 and 0.6812
pT338/pT339-CB2 phosphorylation (OD405) (CB2 cannabinoid receptor [2]; CP55940 1 µM): 0.467 and 0.4332 and 0.3917 and 0.4407 and 0.4084 and 0.4786
pT338/pT339-CB2 phosphorylation (OD405) (CB2 cannabinoid receptor [2]; CP55940 3 µM): 0.4766 and 0.4184 and 0.4965 and 0.6601
pT338/pT339-CB2 phosphorylation (OD405) (CB2 cannabinoid receptor [2]; CP55940 10 µM): 1.4013 and 1.5745 and 1.5305
pT338/pT339-CB2 phosphorylation (OD405) (CB2 cannabinoid receptor [2]; CP55940 30 µM): 1.5241
pT338/pT339-CB2 phosphorylation (OD405) (CB2 cannabinoid receptor [2]; CP55940 100 µM): 1.603 and 1.5834 and 1.3626
OD405 min pS335/pS336-CB2 (CB2 cannabinoid receptor [3]): 0.38
pS335/pS336 (CB2 Phosphorylation Assay) (CB2 cannabinoid receptor [3]; CP55940 1e-6 µM): 0.4195 and 0.458 and 0.3421
pS335/pS336 (CB2 Phosphorylation Assay) (CB2 cannabinoid receptor [3]; CP55940 1e-5 µM): 0.3429 and 0.4547 and 0.4707 and 0.3409 and 0.3589 and 0.38
pS335/pS336 (CB2 Phosphorylation Assay) (CB2 cannabinoid receptor [3]; CP55940 0.0001 µM): 0.3452 and 0.3952 and 0.4236 and 0.425 and 0.3513 and 0.3869
pS335/pS336 (CB2 Phosphorylation Assay) (CB2 cannabinoid receptor [3]; CP55940 0.001 µM): 0.3318 and 0.3924 and 0.4101 and 0.3997 and 0.3583
pS335/pS336 (CB2 Phosphorylation Assay) (CB2 cannabinoid receptor [3]; CP55940 0.1 µM): 0.8954
pS335/pS336 (CB2 Phosphorylation Assay) (CB2 cannabinoid receptor [3]; CP55940 1 µM): 1.0018 and 0.9312 and 1.0017 and 0.8185
pS335/pS336 (CB2 Phosphorylation Assay) (CB2 cannabinoid receptor [3]; CP55940 10 µM): 0.9538 and 0.8534

C[C@@H](NC(=O)[C@@H](N)Cc1ccc(O)cc1)C(=O)NCC(=O)N(C)[C@@H](Cc1ccccc1)C(=O)NCCO [[3H]DAMGO]
saturation binding, mean, HEK293-native (WT-HEK293 cells; concentration 0.05 nM): 2.17
saturation binding, mean, HEK293-native (WT-HEK293 cells; concentration 2.05 nM): 2.19
saturation binding, mean, HEK293-native (WT-HEK293 cells; concentration 2.57 nM): 14.32
saturation binding, mean, HEK293-native (WT-HEK293 cells; concentration 4.21 nM): 26.91
saturation binding, mean, HEK293-native (WT-HEK293 cells; concentration 5.23 nM): 41.11
Bmax (MOP; 25°C, 60 min): 2279 ± 19 fmol/mg protein
saturation binding, mean, HEK293-MOP-HA (MOP; concentration 0.05 nM): 173.5
saturation binding, mean, HEK293-MOP-HA (MOP; concentration 2.05 nM): 1520.4
saturation binding, mean, HEK293-MOP-HA (MOP; concentration 2.57 nM): 1621.54
saturation binding, mean, HEK293-MOP-HA (MOP; concentration 4.21 nM): 1763.3
saturation binding, mean, HEK293-MOP-HA (MOP; concentration 5.23 nM): 2020.39

C[C@@H](NC(=O)[C@@H](N)Cc1ccc(O)cc1)C(=O)NCC(=O)N(C)[C@@H](Cc1ccccc1)C(=O)NCCO [DAMGO, [D-Ala^2,N-MePhe^4,Gly-ol]-enkephalin]
pEC50 GIRK [1]: 8.9
values normalised to 1µM DAMGO, mean ([1]; 1pM ligand): 5.028
values normalised to 1µM DAMGO (individual values) ([1]; 1pM ligand): 5.593 and 7.859 and 3.46 and 5.717 and 7.582 and 8.1092 and 3.374 and 6.042 and 4.849 and 0.5787 and 7.292 and 5.88 and 8.096 and 0.05434 and -0.3462 and 6.3053
values normalised to 1µM DAMGO, mean ([1]; 10pM ligand): 7.472
values normalised to 1µM DAMGO (individual values) ([1]; 10pM ligand): 15.49 and 11.6111 and 4.26 and 2.279 and 5.498 and 3.993 and 8.348 and 9.984 and 18.2069 and 4.03 and 10.8569 and 5.742 and 4.237 and 3.526 and 0.4892 and 11.0085
values normalised to 1µM DAMGO, mean ([1]; 100pM ligand): 9.137
values normalised to 1µM DAMGO (individual values) ([1]; 100pM ligand): 16.8969 and 12.3538 and 1.282 and -0.5086 and 23.733 and 7.982 and 12.165 and 15.3952 and 18.3102 and 7.555 and 2.414 and 2.004 and 6.703 and 3.838 and 4.846 and 11.227
values normalised to 1µM DAMGO, mean ([1]; 1nM ligand): 50.7802
values normalised to 1µM DAMGO (individual values) ([1]; 1nM ligand): 57.1798 and 57.3562 and 19.6942 and 27.9023 and 58.4493 and 49.8324 and 71.4212 and 70.7134 and 62.495 and 60.2954 and 56.8628 and 49.7728 and 53.0466 and 27.1278 and 35.6907 and 54.6435
values normalised to 1µM DAMGO, mean ([1]; 5nM ligand): 92.3187
values normalised to 1µM DAMGO, mean ([1]; 10nM ligand): 95.5035
values normalised to 1µM DAMGO, mean ([1]; 50nM ligand): 101.174
values normalised to 1µM DAMGO, mean ([1]; 100nM ligand): 99.3452
values normalised to 1µM DAMGO (individual values) ([1]; 100nM ligand): 100.4 and 100.34 and 112.066 and 111.922
values normalised to 1µM DAMGO, mean ([1]; 0.5µM ligand): 99.405
values normalised to 1µM DAMGO (individual values) ([1]; 0.5µM ligand): 99.2581 and 100.369 and 110.848 and 112.015 and 90.6195 and 92.807 and 98.2073 and 99.2624 and 100.349 and 111.9 and 110.485 and 68.4902 and 89.9215 and 98.2442 and 106.456 and 101.247
DAMGO 1µM signal in RFU ([1]; 1µM DAMGO, one value per experiment): 38.399 RFU and 40.2317 RFU and 34.405 RFU and 46.8468 RFU and 42.8267 RFU and 41.1246 RFU and 35.6065 RFU and 41.2536 RFU
values normalised to 1µM DAMGO, mean ([1]; 1µM ligand): 100
values normalised to 1µM DAMGO (individual values) ([1]; 1µM ligand): 102.126 and 101.322 and 95.8603 and 104.14 and 98.9994 and 101.001 and 101.569 and 98.4312 and 97.8738 and 109.455 and 90.5448 and 97.309 and 102.691 and 100.145 and 99.8548 and 98.6775
GRK2 recruitment, raw value (MOP, GRK2; agonist 0.01 µM): 1.0365 and 0.9786 and 1.1651 and 0.7672
GRK2 recruitment, raw value (MOP, GRK2; agonist 0.1 µM): 1.7391 and 1.2836 and 1.7883 and 1.2791
GRK2 recruitment, raw value (MOP, GRK2; agonist 1 µM): 3.3164 and 2.1606 and 3.0001 and 2.3217
GRK2 recruitment, normalised (MOP, GRK2; agonist 1 µM): 102.84% and 51.53% and 88.80% and 58.68%
GRK2 recruitment, raw value (MOP, GRK2; agonist 10 µM): 3.4288 and 3.1599 and 2.7372 and 3.6836
GRK2 recruitment, normalised (MOP, GRK2; agonist 10 µM): 107.83% and 95.89% and 77.13% and 119.15%
GRK2 recruitment, raw value (MOP, GRK2; agonist 100 µM): 3.2449 and 4.0099 and 3.3544 and 3.8787
GRK2 recruitment, normalised (MOP, GRK2; agonist 100 µM): 99.67% and 133.63% and 104.53% and 127.81%

Source: publication PMC9646841, “A bead-based GPCR phosphorylation immunoassay for high-throughput ligand profiling and GRK inhibitor screening” (Communications Biology, 2022)
